Source: US9163013B2, “Use of 1H-indazole-3-carboxamide compounds as glycogen synthase kinase 3 beta inhibitors” (AZIENDE CHIMICHE RIUNITE ANGELINI FRANCESCO A.C.R.A.F. …, priority 2012, dated 2015)
Counter-ions that a name gives are not always drawn.

How the values were obtained:
Assay in all cases: Kinase selectivity panel
NEK1 (h) = NEK1 (h) (Homo sapiens (Human), UniProt Q96PY6); format: biochemical; settings: duplicate, read-out: % inhibition of control values, NEK1 (h)
Outline: (§1)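 Compounds at 10 μM (duplicate wells) are profiled against human recombinant kinases that phosphorylate peptide substrates with ATP over 10–90 min at 22° C. LANCE or HTRF read-out quantifies the phosphorylated product, and values represent % inhibition versus control.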

MSK1 (h) = MSK1 (h) (Homo sapiens (Human), UniProt O75582); format: biochemical; settings: duplicate, read-out: % inhibition of control values, MSK1 (h)
Outline: as §1

IGF1R kinase (h) = IGF1R kinase (h) (Homo sapiens (Human), UniProt P08069); format: biochemical; settings: duplicate, read-out: % inhibition of control values, IGF1R kinase (h)
Outline: as §1

smMLCK (h) (MYLK) = smMLCK (h) (MYLK) (Homo sapiens (Human), UniProt Q15746); format: biochemical; settings: duplicate, read-out: % inhibition of control values, smMLCK (h) (MYLK)
Outline: as §1

Src kinase (h) = Src kinase (h) (Homo sapiens (Human), UniProt P12931); format: biochemical; settings: duplicate, read-out: % inhibition of control values, Src kinase (h)
Chain of Src kinase (h) (P12931 whole entry, looked up): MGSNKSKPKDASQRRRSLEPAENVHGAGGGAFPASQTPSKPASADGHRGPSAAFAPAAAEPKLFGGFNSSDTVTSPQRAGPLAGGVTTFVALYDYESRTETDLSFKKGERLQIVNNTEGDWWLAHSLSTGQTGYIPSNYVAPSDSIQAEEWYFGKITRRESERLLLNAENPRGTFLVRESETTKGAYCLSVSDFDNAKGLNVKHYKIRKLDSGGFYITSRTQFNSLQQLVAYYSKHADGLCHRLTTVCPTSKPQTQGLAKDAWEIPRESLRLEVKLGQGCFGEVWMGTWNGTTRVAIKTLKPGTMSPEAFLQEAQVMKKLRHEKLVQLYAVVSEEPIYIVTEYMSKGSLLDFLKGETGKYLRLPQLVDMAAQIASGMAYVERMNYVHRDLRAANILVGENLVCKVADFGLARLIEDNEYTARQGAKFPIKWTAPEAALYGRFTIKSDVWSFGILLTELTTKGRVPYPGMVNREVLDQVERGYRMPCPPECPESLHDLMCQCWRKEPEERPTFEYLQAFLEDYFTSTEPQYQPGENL
Outline: as §1

Pim1 kinase (h) = Pim1 kinase (h) (Homo sapiens (Human), UniProt P11309); format: biochemical; settings: duplicate, read-out: % inhibition of control values, Pim1 kinase (h)
Chain of Pim1 kinase (h) (P11309 whole entry): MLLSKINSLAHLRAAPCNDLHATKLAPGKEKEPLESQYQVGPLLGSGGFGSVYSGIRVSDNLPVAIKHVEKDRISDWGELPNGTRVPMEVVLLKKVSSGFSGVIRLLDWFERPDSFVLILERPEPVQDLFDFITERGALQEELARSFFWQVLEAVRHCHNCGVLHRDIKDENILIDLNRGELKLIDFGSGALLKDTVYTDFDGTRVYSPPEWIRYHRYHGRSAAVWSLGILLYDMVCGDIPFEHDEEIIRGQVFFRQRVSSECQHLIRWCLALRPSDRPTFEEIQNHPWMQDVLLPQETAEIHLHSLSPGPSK
Outline: as §1

MAPKAPK2 (h) = MAPKAPK2 (h) (Homo sapiens (Human), UniProt P49137); format: biochemical; settings: duplicate, read-out: % inhibition of control values, MAPKAPK2 (h)
Chain of MAPKAPK2 (h) (P49137 whole entry): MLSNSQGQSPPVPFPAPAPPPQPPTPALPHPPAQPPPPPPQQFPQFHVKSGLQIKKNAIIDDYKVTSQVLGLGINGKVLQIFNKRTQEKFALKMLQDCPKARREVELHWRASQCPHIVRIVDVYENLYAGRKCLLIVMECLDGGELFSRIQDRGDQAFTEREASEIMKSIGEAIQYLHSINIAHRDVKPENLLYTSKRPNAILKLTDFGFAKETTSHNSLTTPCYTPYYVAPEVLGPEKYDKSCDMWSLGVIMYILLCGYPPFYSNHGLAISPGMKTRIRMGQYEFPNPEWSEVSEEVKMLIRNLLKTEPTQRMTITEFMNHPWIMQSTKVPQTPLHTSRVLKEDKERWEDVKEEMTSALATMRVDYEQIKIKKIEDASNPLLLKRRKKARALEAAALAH
Outline: as §1

p38gamma kinase (h) = p38gamma kinase (h) (Homo sapiens (Human), UniProt P53778); format: biochemical; settings: duplicate, read-out: % inhibition of control values, p38gamma kinase (h)
Outline: as §1

ERK2 (h) (P42mapk) = ERK2 (h) (P42mapk) (Homo sapiens (Human), UniProt P28482); format: biochemical; settings: duplicate, read-out: % inhibition of control values, ERK2 (h) (P42mapk)
Outline: as §1

PhKgamma 2 (h) = PhKgamma 2 (h) (Homo sapiens (Human), UniProt P15735); format: biochemical; settings: duplicate, read-out: % inhibition of control values, PhKgamma 2 (h)
Chain of PhKgamma 2 (h) (P15735 whole entry): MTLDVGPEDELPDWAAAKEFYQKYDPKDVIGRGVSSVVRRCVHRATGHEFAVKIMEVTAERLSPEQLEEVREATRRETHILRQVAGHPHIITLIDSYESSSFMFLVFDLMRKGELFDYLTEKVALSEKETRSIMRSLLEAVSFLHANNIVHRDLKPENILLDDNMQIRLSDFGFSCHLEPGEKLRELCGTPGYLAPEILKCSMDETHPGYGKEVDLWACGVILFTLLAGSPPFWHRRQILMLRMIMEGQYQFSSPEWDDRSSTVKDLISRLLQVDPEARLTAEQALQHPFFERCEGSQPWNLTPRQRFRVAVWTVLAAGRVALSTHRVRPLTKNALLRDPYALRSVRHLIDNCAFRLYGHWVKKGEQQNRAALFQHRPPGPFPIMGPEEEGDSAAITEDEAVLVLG
Outline: as §1

CDK5/p35 (h) = CDK5/p35 (h) (Homo sapiens (Human), UniProt Q00535); format: biochemical; settings: duplicate, read-out: % inhibition of control values, CDK5/p35 (h)
Outline: as §1

MEK1/MAP2K1 (h) = MEK1/MAP2K1 (h) (Homo sapiens (Human), UniProt Q02750); format: biochemical; settings: duplicate, read-out: % inhibition of control values, MEK1/MAP2K1 (h)
Outline: as §1

IKKepsilon (h) (IKBKE) = IKKepsilon (h) (IKBKE) (Homo sapiens (Human), UniProt Q14164); format: biochemical; settings: duplicate, read-out: % inhibition of control values, IKKepsilon (h) (IKBKE)
Chain of IKKepsilon (h) (IKBKE) (Q14164 whole entry): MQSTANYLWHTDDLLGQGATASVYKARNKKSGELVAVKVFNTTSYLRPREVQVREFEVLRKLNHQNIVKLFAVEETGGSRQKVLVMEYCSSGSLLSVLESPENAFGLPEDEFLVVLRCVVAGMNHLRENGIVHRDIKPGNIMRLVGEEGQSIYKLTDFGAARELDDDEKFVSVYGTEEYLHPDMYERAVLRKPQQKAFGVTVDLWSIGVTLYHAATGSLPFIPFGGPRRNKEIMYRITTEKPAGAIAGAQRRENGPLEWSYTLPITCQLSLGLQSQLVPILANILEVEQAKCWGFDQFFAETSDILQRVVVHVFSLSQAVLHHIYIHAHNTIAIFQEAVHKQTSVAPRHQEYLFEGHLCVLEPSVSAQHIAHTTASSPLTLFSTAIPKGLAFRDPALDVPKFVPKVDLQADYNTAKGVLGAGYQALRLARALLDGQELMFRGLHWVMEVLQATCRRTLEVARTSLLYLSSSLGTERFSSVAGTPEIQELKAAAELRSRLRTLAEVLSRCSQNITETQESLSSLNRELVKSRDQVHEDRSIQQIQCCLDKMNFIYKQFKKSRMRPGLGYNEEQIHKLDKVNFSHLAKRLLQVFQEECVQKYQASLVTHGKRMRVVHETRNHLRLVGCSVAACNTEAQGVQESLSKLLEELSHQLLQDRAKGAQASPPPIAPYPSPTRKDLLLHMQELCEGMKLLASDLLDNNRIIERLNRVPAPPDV
Outline: as §1

DAPK1 (h) = DAPK1 (h) (Homo sapiens (Human), UniProt P53355); format: biochemical; settings: duplicate, read-out: % inhibition of control values, DAPK1 (h)
Outline: as §1

EphB2 kinase (h) = EphB2 kinase (h) (Homo sapiens (Human), UniProt P29323); format: biochemical; settings: duplicate, read-out: % inhibition of control values, EphB2 kinase (h)
Chain of EphB2 kinase (h) (P29323 19-1055): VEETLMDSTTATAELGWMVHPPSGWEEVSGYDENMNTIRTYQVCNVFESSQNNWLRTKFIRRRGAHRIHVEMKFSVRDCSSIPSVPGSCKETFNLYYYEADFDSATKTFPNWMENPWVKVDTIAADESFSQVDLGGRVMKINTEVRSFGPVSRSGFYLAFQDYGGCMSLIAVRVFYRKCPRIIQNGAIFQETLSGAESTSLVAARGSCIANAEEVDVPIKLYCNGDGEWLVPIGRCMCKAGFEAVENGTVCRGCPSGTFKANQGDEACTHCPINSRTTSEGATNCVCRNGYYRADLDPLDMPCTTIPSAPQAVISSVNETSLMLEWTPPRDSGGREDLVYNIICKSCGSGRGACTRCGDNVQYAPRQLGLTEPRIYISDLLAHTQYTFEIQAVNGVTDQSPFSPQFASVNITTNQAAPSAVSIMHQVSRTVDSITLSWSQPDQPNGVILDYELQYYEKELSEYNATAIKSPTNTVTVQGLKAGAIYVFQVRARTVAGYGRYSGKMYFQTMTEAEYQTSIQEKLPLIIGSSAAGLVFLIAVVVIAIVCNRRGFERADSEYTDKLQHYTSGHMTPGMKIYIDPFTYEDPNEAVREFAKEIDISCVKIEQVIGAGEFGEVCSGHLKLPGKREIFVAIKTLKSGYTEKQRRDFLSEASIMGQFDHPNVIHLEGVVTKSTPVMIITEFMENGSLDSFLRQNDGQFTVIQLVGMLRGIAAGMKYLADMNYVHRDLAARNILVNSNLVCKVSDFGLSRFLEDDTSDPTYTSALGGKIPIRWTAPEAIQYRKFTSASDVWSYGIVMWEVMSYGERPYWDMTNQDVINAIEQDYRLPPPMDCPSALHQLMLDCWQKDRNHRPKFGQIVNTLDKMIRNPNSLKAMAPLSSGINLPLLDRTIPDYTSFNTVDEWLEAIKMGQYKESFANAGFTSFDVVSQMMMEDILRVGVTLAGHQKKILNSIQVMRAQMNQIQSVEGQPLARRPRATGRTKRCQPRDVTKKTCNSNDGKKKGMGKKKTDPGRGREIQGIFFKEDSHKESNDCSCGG
Outline: as §1

JAK1 (h) = JAK1 (h) (Homo sapiens (Human), UniProt P23458); format: biochemical; settings: duplicate, read-out: % inhibition of control values, JAK1 (h)
Chain of JAK1 (h) (P23458 whole entry): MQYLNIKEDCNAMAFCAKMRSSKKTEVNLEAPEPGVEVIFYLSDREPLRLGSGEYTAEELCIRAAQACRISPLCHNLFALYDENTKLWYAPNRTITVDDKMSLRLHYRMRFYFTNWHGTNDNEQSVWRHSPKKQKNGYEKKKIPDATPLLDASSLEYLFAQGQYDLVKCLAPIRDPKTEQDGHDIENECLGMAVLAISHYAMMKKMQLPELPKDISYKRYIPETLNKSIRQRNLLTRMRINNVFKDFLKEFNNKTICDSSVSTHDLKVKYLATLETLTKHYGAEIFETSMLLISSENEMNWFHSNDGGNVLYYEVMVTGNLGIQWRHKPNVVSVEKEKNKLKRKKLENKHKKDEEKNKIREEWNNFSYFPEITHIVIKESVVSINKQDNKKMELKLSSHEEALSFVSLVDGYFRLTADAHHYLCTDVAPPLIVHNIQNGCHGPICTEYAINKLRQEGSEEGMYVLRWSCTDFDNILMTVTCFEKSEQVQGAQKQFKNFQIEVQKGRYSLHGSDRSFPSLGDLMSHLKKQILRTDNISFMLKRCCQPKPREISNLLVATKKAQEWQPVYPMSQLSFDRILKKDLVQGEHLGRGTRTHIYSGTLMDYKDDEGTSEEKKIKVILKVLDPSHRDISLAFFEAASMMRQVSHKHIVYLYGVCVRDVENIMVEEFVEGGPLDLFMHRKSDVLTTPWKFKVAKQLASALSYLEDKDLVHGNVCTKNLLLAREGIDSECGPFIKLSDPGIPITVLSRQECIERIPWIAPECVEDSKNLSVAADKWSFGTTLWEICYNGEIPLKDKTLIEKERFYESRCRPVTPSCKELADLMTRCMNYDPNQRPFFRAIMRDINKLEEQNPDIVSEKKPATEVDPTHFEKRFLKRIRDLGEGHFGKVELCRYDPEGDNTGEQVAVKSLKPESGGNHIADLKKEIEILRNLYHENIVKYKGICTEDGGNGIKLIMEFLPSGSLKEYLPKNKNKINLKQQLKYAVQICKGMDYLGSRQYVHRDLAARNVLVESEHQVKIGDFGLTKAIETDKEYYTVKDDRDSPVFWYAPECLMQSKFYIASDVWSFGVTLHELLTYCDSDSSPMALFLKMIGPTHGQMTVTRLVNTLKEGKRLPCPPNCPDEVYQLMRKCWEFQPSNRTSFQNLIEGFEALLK
Outline: as §1

mTOR kinase (h) (FRAP1) = mTOR kinase (h) (FRAP1) (Homo sapiens (Human), UniProt P42345); format: biochemical; settings: duplicate, read-out: % inhibition of control values, mTOR kinase (h) (FRAP1)
Outline: as §1

CK1alpha (h) = CK1alpha (h) (Homo sapiens (Human), UniProt P48729); format: biochemical; settings: duplicate, read-out: % inhibition of control values, CK1alpha (h)
Chain of CK1alpha (h) (P48729 whole entry): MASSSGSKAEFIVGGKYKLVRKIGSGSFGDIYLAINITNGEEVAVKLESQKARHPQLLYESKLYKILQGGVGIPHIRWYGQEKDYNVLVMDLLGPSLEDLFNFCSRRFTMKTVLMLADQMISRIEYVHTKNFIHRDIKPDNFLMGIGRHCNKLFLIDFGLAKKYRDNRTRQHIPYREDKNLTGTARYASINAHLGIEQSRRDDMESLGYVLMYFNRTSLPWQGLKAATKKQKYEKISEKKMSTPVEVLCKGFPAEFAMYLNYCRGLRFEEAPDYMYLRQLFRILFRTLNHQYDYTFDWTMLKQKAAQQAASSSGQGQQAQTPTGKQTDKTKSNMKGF
Outline: as §1

AMPKalpha = format: biochemical, human; settings: 10 μM, duplicate
Protocol: (a) Compound 1 was tested against a panel of 60 kinases in order to assess its selectivity. The assays were chosen taking into consideration the diversity of assay families.
Human recombinant kinases were incubated in the presence of specific peptide substrates plus ATP for different times (10, 15, 30, 60 or 90 minutes) at 22° C. Phosphorylated substrate was detected by LANCE or HTRF technology (CISBIO, MA, USA).
Compound 1 was tested at 10 μM in duplicate.
The results are expressed as a percent of inhibition of control specific activity obtained in the presence of the test compound 1 and are reported in the following Table 5.
(b) Compounds 7, 12, 21 and 24 were tested against the same panel of 60 kinases under the same conditions described above for compound 1.
The results are expressed as a percent of inhibition of control specific activity obtained in the presence of the test compounds and are reported in the following Table 6.

| inhibition at 10 µM (NEK1 (h)) | inhibition at 10 µM (MSK1 (h)) | inhibition at 10 µM (IGF1R kinase (h)) | inhibition at 10 µM (smMLCK (h) (MYLK)) | inhibition at 10 µM (Src kinase (h)) | inhibition at 10 µM (Pim1 kinase (h)) | inhibition at 10 µM (MAPKAPK2 (h)) | inhibition at 10 µM (p38gamma kinase (h)) | inhibition at 10 µM (ERK2 (h) (P42mapk)) | inhibition at 10 µM (PhKgamma 2 (h)) | inhibition at 10 µM (CDK5/p35 (h)) | inhibition at 10 µM (MEK1/MAP2K1 (h)) | inhibition at 10 µM (IKKepsilon (h) (IKBKE)) | inhibition at 10 µM (DAPK1 (h)) | inhibition at 10 µM (EphB2 kinase (h)) | inhibition at 10 µM (JAK1 (h)) | inhibition at 10 µM (mTOR kinase (h) (FRAP1)) | inhibition at 10 µM (CK1alpha (h)) | % inhibition of control values, AMPKalpha (AMPKalpha) | SMILES |
| --- | --- | --- | --- | --- | --- | --- | --- | --- | --- | --- | --- | --- | --- | --- | --- | --- | --- | --- | --- |
| 1% | 8% | 5% | 0% | 0% | 2% | 0% | 2% | 33% | 6% | 30% | 25% | 4% | 10% | 0% | 0% | 0% | 15% | 13% | COc1ccc2[nH]nc(C(=O)NCC3CCN(CCc4ccc(O)cc4)CC3)c2c1 [Compound 1, N-({1-[2-(4-hydroxyphenyl)ethyl]-piperidin-4-yl}methyl)-5-methoxy-1H-indazole-3-carboxamide] |
| – | – | 0% | – | 0% | 10% | 0% | – | 89% | 0% | 98% | – | 21% | 5% | 2% | 10% | – | 2% | 70% | COc1ccncc1-c1ccc2[nH]nc(C(=O)NCC3CCN(Cc4ccc(C(=O)O)o4)CC3)c2c1 [Compound 21, 5-({4-[({[5-(4-Methoxypyridin-3-yl)-1H-indazol-3-yl]carbonyl}amino)methyl]piperidin-1-yl}methyl)furan-2-carboxylic acid formate] |
| – | – | 0% | – | 0% | 2% | 0% | – | 35% | 0% | 16% | – | 0% | 15% | 0% | 1% | – | 0% | 21% | COc1ccc2[nH]nc(C(=O)NCC3CCN(Cc4ccc(C(=O)O)o4)CC3)c2c1 [Compound 24, 5-{[4-({[(5-Methoxy-1H-indazol-3-yl)carbonyl]amino}methyl)piperidin-1-yl]methyl}furan-2-carboxylic acid] |
